Where “and” joins values, the source holds several entries; their conditions need not be identical. Equal values may be shown once. Toxic doses and inconclusive results are not listed. Residues, ends and D or L forms follow the SMILES beside them. *: point of attachment. For = O=C*
System: BDF1 mice, P388 leukemia ip, median survival T/C
Test: NCI In Vivo Anticancer Drug Screen. Data for tumor model P388 Leukemia (intraperitoneal) in B6D2F1 (BDF1) mice
Conditions: endpoint: median survival time, higher = longer survival
Method in brief: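 Vehicle-dosed animals serve as the reference; survival of compound-dosed, tumour-implanted mice is divided by it.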

[1] = dose: 100.0 mg/kg/injection, schedule: Q01DX009 (ip), vehicle: saline with Tween-80
[2] = dose: 100.0 mg/kg/injection, schedule: Q04DX003 (ip), vehicle: saline
[3] = dose: 200.0 mg/kg/injection, schedule: Q01DX009 (ip), vehicle: saline with Tween-80
[4] = dose: 100.0 mg/kg/injection, schedule: Q04DX003 (ip), vehicle: saline with Tween-80
[5] = dose: 200.0 mg/kg/injection, schedule: Q04DX003 (ip), vehicle: saline with Tween-80
[6] = dose: 400.0 mg/kg/injection, schedule: Q01DX009 (ip), vehicle: saline with Tween-80
[7] = dose: 400.0 mg/kg/injection, schedule: Q04DX003 (ip), vehicle: saline with Tween-80

Structure (SMILES): c1ccc2c(c1)CCc1cc3c(nc1-2)-c1ccccc1CC3
- T/C (dose: 100.0 mg/kg/injection, schedule: Q04DX003 (ip), vehicle: Klucel (hydroxypropylcellulose) (HPC)): 112 % of control
- T/C (dose: 400.0 mg/kg/injection, schedule: Q04DX003 (ip), vehicle: Klucel (hydroxypropylcellulose) (HPC)): 112 % of control

Structure (SMILES): CC(C)(C)[O][Pb]([c]1ccccc1)([c]1ccccc1)[c]1ccccc1
- T/C (dose: 0.39 mg/kg/injection, schedule: Q01DX009 (ip), vehicle: saline): 100 % of control
- T/C (dose: 0.85 mg/kg/injection, schedule: Q04DX003 (ip), vehicle: saline): 105 % of control
- T/C (dose: 1.02 mg/kg/injection, schedule: Q01DX009 (ip), vehicle: saline): 104 % of control and 115 % of control
- T/C (dose: 1.7 mg/kg/injection, schedule: Q04DX003 (ip), vehicle: saline): 110 % of control
- T/C (dose: 2.34 mg/kg/injection, schedule: Q01DX009 (ip), vehicle: saline): 113 % of control and 120 % of control
- T/C (dose: 3.4 mg/kg/injection, schedule: Q01DX009 (ip), vehicle: saline): 90 % of control
- T/C (dose: 3.4 mg/kg/injection, schedule: Q04DX003 (ip), vehicle: saline): 90 % of control
- T/C (dose: 5.0 mg/kg/injection, schedule: Q04DX003 (ip), vehicle: saline): 104 % of control
- T/C (dose: 5.75 mg/kg/injection, schedule: Q01DX001 (ip), vehicle: Klucel (hydroxypropylcellulose) (HPC)): 88 % of control
- T/C (dose: 7.7 mg/kg/injection, schedule: Q04DX003 (ip), vehicle: saline): 86 % of control

Structure (SMILES): N=C(N)SC(c1ccccc1)c1ccccc1
- T/C (dose: 100.0 mg/kg/injection, schedule: Q01DX001 (ip), vehicle: Klucel (hydroxypropylcellulose) (HPC)): 100 % of control
- T/C (dose: 200.0 mg/kg/injection, schedule: Q01DX001 (ip), vehicle: Klucel (hydroxypropylcellulose) (HPC)): 104 % of control

Structure (SMILES): CC([CH2][Hg][Cl])c1ccccc1 (configuration not stated)
- T/C (dose: 3.13 mg/kg/injection, schedule: Q01DX009 (ip), vehicle: saline with Tween-80): 122 % of control
- T/C (dose: 4.16 mg/kg/injection, schedule: Q01DX009 (ip), vehicle: saline with Tween-80): 118 % of control
- T/C (dose: 6.25 mg/kg/injection, schedule: Q01DX009 (ip), vehicle: saline with Tween-80): 113 % of control
- T/C (dose: 9.38 mg/kg/injection, schedule: Q01DX009 (ip), vehicle: saline with Tween-80): 109 % of control
- T/C (dose: 12.5 mg/kg/injection, schedule: Q01DX009 (ip), vehicle: saline with Tween-80): 109 % of control

Structure (SMILES): O=C(OC(=O)c1cccc(-c2ccccc2)c1)c1cccc(-c2ccccc2)c1
- T/C (dose: 50.0 mg/kg/injection, schedule: Q01DX009 (ip), vehicle: Klucel (hydroxypropylcellulose) (HPC)): 104 % of control
- T/C (dose: 100.0 mg/kg/injection, schedule: Q01DX009 (ip), vehicle: Klucel (hydroxypropylcellulose) (HPC)): 95 % of control
- T/C (dose: 200.0 mg/kg/injection, schedule: Q01DX009 (ip), vehicle: Klucel (hydroxypropylcellulose) (HPC)): 95 % of control

Structure (SMILES): Nc1ncn(C2OC(CO)C(O)C2O)c(=O)n1 (configuration not stated)
- T/C (dose: 0.16 mg/kg/injection, schedule: Q01DX009 (ip), vehicle: saline): 91 % of control
- T/C (dose: 0.25 mg/kg/injection, schedule: Q01DX009 (ip), vehicle: saline): 116 % of control
- T/C (dose: 0.38 mg/kg/injection, schedule: Q01DX009 (ip), vehicle: saline): 150 % of control
- T/C (dose: 0.75 mg/kg/injection, schedule: Q01DX009 (ip), vehicle: saline): 181 % of control
- T/C (dose: 0.9 mg/kg/injection, schedule: Q01DX009 (ip), vehicle: saline): 210 % of control
- T/C (dose: 1.0 mg/kg/injection, schedule: Q01DX005 (ip), vehicle: saline): 166 % of control
- T/C (dose: 1.5 mg/kg/injection, schedule: Q01DX009 (ip), vehicle: saline): 195 % of control and 202 % of control
- T/C (dose: 1.9 mg/kg/injection, schedule: Q01DX009 (ip), vehicle: saline): 235 % of control
- T/C (dose: 2.0 mg/kg/injection, schedule: Q01DX005 (ip), vehicle: saline): 201 % of control
- T/C (dose: 2.2 mg/kg/injection, schedule: Q01DX009 (ip), vehicle: saline): 235 % of control and 236 % of control and 216 % of control
- T/C (dose: 3.0 mg/kg/injection, schedule: Q01DX009 (ip), vehicle: saline): 100 % of control
- T/C (dose: 3.3 mg/kg/injection, schedule: Q01DX009 (ip), vehicle: saline): 260 % of control and 275 % of control and 280 % of control
- T/C (dose: 4.0 mg/kg/injection, schedule: Q01DX005 (ip), vehicle: saline): 204 % of control
- T/C (dose: 4.25 mg/kg/injection, schedule: Q04DX003 (ip), vehicle: saline): 172 % of control
- T/C (dose: 5.0 mg/kg/injection, schedule: Q01DX009 (ip), vehicle: saline): 254 % of control and 336 % of control and 365 % of control
- T/C (dose: 5.0 mg/kg/injection, schedule: Q04DX004 (ip), vehicle: saline): 207 % of control
- T/C (dose: 6.0 mg/kg/injection, schedule: Q01DX009 (ip), vehicle: saline): 104 % of control
- T/C (dose: 6.48 mg/kg/injection, schedule: Q04DX003 (ip), vehicle: saline): 220 % of control
- T/C (dose: 7.0 mg/kg/injection, schedule: Q04DX004 (ip), vehicle: saline): 216 % of control
- T/C (dose: 7.5 mg/kg/injection, schedule: Q01DX009 (ip), vehicle: saline): 100 % of control
- T/C (dose: 8.5 mg/kg/injection, schedule: Q01DX009 (ip), vehicle: saline): 90 % of control
- T/C (dose: 10.0 mg/kg/injection, schedule: Q04DX004 (ip), vehicle: saline): 112 % of control and 219 % of control
- T/C (dose: 10.8 mg/kg/injection, schedule: Q04DX003 (ip), vehicle: saline): 177 % of control
- T/C (dose: 11.0 mg/kg/injection, schedule: Q04DX004 (ip), vehicle: saline): 248 % of control
- T/C (dose: 12.0 mg/kg/injection, schedule: Q04DX003 (ip), vehicle: saline): 225 % of control
- T/C (dose: 15.0 mg/kg/injection, schedule: Q04DX004 (ip), vehicle: saline): 226 % of control and 106 % of control
- T/C (dose: 16.0 mg/kg/injection, schedule: Q04DX004 (ip), vehicle: saline): 272 % of control
- T/C (dose: 19.0 mg/kg/injection, schedule: Q04DX003 (ip), vehicle: saline): 233 % of control
- T/C (dose: 20.0 mg/kg/injection, schedule: Q04DX004 (ip), vehicle: saline): 165 % of control
- T/C (dose: 44.0 mg/kg/injection, schedule: Q01DX001 (ip), vehicle: saline): 176 % of control
- T/C (dose: 49.0 mg/kg/injection, schedule: Q01DX001 (ip), vehicle: saline): 170 % of control
- T/C (dose: 73.0 mg/kg/injection, schedule: Q01DX001 (ip), vehicle: saline): 176 % of control and 182 % of control
- T/C (dose: 110.0 mg/kg/injection, schedule: Q01DX001 (ip), vehicle: saline): 157 % of control and 190 % of control
- T/C (dose: 150.0 mg/kg/injection, schedule: Q01DX001 (ip), vehicle: saline): 120 % of control

Structure (SMILES): Cc1cc(C)c(NC(=O)N(CCCl)N=O)cc1C
- T/C (dose: 20.0 mg/kg/injection, schedule: Q01DX009 (ip), vehicle: other): 110 % of control
- T/C (dose: 45.0 mg/kg/injection, schedule: Q01DX009 (ip), vehicle: other): 100 % of control
- T/C (dose: 50.0 mg/kg/injection, schedule: Q01DX009 (ip), vehicle: other): 122 % of control
- T/C (dose: 50.0 mg/kg/injection, schedule: Q01DX009 (ip), vehicle: saline with Tween-80): 105 % of control
- T/C (dose: 50.0 mg/kg/injection, schedule: Q04DX003 (ip), vehicle: saline): 108 % of control
- T/C (dose: 65.0 mg/kg/injection, schedule: Q01DX009 (ip), vehicle: other): 150 % of control
- T/C [1]: 105 % of control
- T/C [2]: 108 % of control
- T/C (dose: 200.0 mg/kg/injection, schedule: Q01DX009 (ip), vehicle: other): 122 % of control
- T/C [3]: 105 % of control
- T/C (dose: 200.0 mg/kg/injection, schedule: Q04DX003 (ip), vehicle: saline): 95 % of control

Structure (SMILES): COC(=O)C(CC(C)C)NC(=O)C(Cc1ccc(O)cc1)NC=O (stereo not drawn) (For-Tyr-Leu-OMe; configuration not given here)
- T/C [1]: 99 % of control
- T/C [4]: 105 % of control
- T/C [3]: 115 % of control
- T/C [5]: 110 % of control
- T/C [6]: 106 % of control
- T/C [7]: 112 % of control

Structure (SMILES): CCN(CC)c1ccc([N+](=O)[O-])c2no[n+]([O-])c12
- T/C (dose: 35.0 mg/kg/injection, schedule: Q01DX009 (ip), vehicle: saline with Tween-80): 91 % of control
- T/C (dose: 70.0 mg/kg/injection, schedule: Q01DX009 (ip), vehicle: saline with Tween-80): 94 % of control

Structure (SMILES): CCCCCCCCOP(=O)(N1CC1C)N1CC1C (configuration not stated)
- T/C [2]: 154 % of control

Structure (SMILES): COc1ccc(NC2=CC(C)(C(=O)O)OC2=O)cc1 (configuration not stated)
- T/C [1]: 100 % of control
- T/C [4]: 100 % of control
- T/C [3]: 91 % of control
- T/C [5]: 110 % of control
- T/C [6]: 108 % of control
- T/C [7]: 115 % of control

Reference: PubChem BioAssay AID328 (DTP/NCI, 2004)
